From PubChem BioAssay AID1117325 (Cheminformatics & Chemogenomics Research Group (CCRG), …, 2015)
Several values for one entry are separate records, joined by “and”; a condition that tells them apart may be missing. Equal entries are not always repeated. Activity calls are given as the source filed them. The rule behind the calls is not given here. *1 amine or outer side, *2 acyl side, *3 side chain or, on linkers, in order; H or OH if unused. Where a SMILES comes first, the peptide text is derived from it. Bridges are numbered along the chain shown (N, C = ends). Roman numbers before positions name the chains, in order. [ ]: non-standard residue; d: D form. Actinocin(9to1) = Cc1c2oc3c(C)ccc(C(=O)[*:1])c3nc-2c(C(=O)[*:2])c(N)c1=O; NMeV = CN[C@H](C(=O)O)C(C)C; Sar = CNCC(=O)O

Tested on: C2C12 WNT3A-conditioned, nuclear beta-catenin
Experiment: activation of β-catenin in the nucleus of C2C12, concentration-response, cell-based, Wnt-3a CM-treated, half-maximal inhibitory concentration (AID 1117325)

SMILES | IC50
COCc1c(C(C)C)nc(C(C)C)c(/C=C/[C@@H](O)C[C@@H](O)CC(=O)O)c1-c1ccc(F)cc1 | 6670 nM (inactive)
CCCCc1ccc2nc(NC(=O)OC)[nH]c2c1 | 33.6 nM
CCCSc1ccc2nc(NC(=O)OC)[nH]c2c1 | 1280 nM
O=[N+]([O-])C(Br)(CO)CO | > 20000 nM (inactive)
CCCCCCCCCCCCCC[N+](C)(C)C | > 20000 nM (inactive)
CC(=O)[C@]1(O)Cc2c(O)c3c(c(O)c2[C@@H](O[C@H]2C[C@H](N)[C@H](O)[C@H](C)O2)C1)C(=O)c1ccccc1C3=O | 100 nM
[O-][n+]1ccccc1SSc1cccc[n+]1[O-] | 991 nM
CCC1=C[C@@H]2CN(C1)Cc1c([nH]c3ccccc13)[C@@](C(=O)OC)(c1cc3c(cc1OC)N(C)[C@H]1[C@@](O)(C(=O)OC)[C@H](OC(C)=O)[C@]4(CC)C=CCN5CC[C@]31[C@@H]54)C2 | 8.9 nM
CCCCC1C(=O)N(c2ccccc2)N(c2ccc(O)cc2)C1=O (centres undefined) | > 20000 nM (inactive)
CC(=O)Oc1ccc(C2(c3ccc(OC(C)=O)cc3)Oc3ccccc3NC2=O)cc1 | > 20000 nM (inactive)
C=CC(=O)Nc1cc2c(Nc3ccc(F)c(Cl)c3)ncnc2cc1OCCCN1CCOCC1 | 1000 nM
Nc1ccc2cc3ccc(N)cc3nc2c1 | 5990 nM (inactive)
CCCCCCCCCCCCCC[N+](C)(C)Cc1ccccc1 | > 20000 nM (inactive)
COc1cccc2c1C(=O)c1c(O)c3c(c(O)c1C2=O)C[C@@](O)(C(=O)CO)CC3OC1CC(N2CCOC(OC)C2)C(O)C(C)O1 (some centres undefined) | 13.5 nM
Cc1nc2ccc(CN(C)c3ccc(C(=O)N[C@@H](CCC(=O)O)C(=O)O)s3)cc2c(=O)[nH]1 | 12.7 nM
Cc1c2oc3c(C)ccc(C(=O)N[C@@H]4C(=O)N[C@H](C(C)C)C(=O)N5CCC[C@H]5C(=O)N(C)CC(=O)N(C)[C@@H](C(C)C)C(=O)O[C@@H]4C)c3nc-2c(C(=O)N[C@@H]2C(=O)N[C@H](C(C)C)C(=O)N3CCC[C@H]3C(=O)N(C)CC(=O)N(C)[C@@H](C(C)C)C(=O)O[C@@H]2C)c(N)c1=O (I: T[dV]P[Sar][NMeV] / II: T[dV]P[Sar][NMeV]; ester I:1-I:C, II:1-II:C; linker I:N-II:N via Actinocin(9to1)) | 37 nM
Cc1cc(O)c2ccccc2c1O | 4390 nM
CN(C)C(=S)SSC(=S)N(C)C | > 20000 nM (inactive)
COC(=O)[C@H]1[C@H]2C[C@@H]3c4[nH]c5cc(OC)ccc5c4CCN3C[C@H]2C[C@@H](OC(=O)/C=C/c2ccc(O)c(OC)c2)[C@@H]1OC | > 20000 nM (inactive)
CC[C@@]1(O)C(=O)OCc2c1cc1n(c2=O)Cc2c-1nc1ccccc1c2/C=N/OC(C)(C)C | 1160 nM
CCc1nc(N)nc(N)c1-c1ccc(Cl)cc1 | 860 nM

SMILES | IC50
COC(=O)c1nc(Cl)c(Cl)nc1N | 308 nM
COC(=O)Nc1nc2ccc(C(=O)C3CC3)cc2[nH]1 | 349 nM
CC[C@@]1(O)C(=O)OCc2c1cc1n(c2=O)Cc2cc3c(CN(C)C)c(O)ccc3nc2-1 | 134 nM
O=[N+]([O-])c1ccc(O)c2ncccc12 | > 20000 nM (inactive)
Cc1ccccc1C(=O)Nc1ccc(C(=O)N2CCCC(N(C)C)c3ccccc32)cc1 (centres undefined) | 4560 nM
Cc1ccc2nc(N)[nH]c(=O)c2c1Sc1ccncc1 | 710 nM
COC(=O)Nc1nc2ccc(S(=O)c3ccccc3)cc2[nH]1 (centres undefined) | 468 nM
COc1cc([C@@H]2c3cc4c(cc3[C@H](O)[C@H]3COC(=O)[C@H]23)OCO4)cc(OC)c1OC | 13.1 nM
Cc1cc(=O)c2c(O)c3c(O)cc(=O)c4c3c3c(cc(O)c1c23)C(C)(C)C=4O | 1070 nM
NC(=NCCCCCCN=C(N)/N=C(\N)Nc1ccc(Cl)cc1)/N=C(\N)Nc1ccc(Cl)cc1 | > 20000 nM (inactive)
CC[C@@H]([C@H](C)O)n1ncn(-c2ccc(N3CCN(c4ccc(OC[C@@H]5CO[C@@](Cn6cncn6)(c6ccc(F)cc6F)C5)cc4)CC3)cc2)c1=O | 5290 nM (inactive)
COc1cc(NCc2ccc3nc(N)nc(N)c3c2C)cc(OC)c1OC | 3.3 nM
Clc1cc(Cl)c(OCC#CI)cc1Cl | > 20000 nM (inactive)
c1ccc2c(c1)Sc1ccccc1N2CC1CN2CCC1CC2 (centres undefined) | > 20000 nM (inactive)
CCCOc1ccc2nc(NC(=O)OC)[nH]c2c1 | 365 nM
CCCCCCNC(=O)n1cc(F)c(=O)[nH]c1=O | 4980 nM
COc1ccc2cc1Oc1ccc(cc1)C[C@H]1c3c(cc4c(c3Oc3cc5c(cc3OC)CCN(C)[C@@H]5C2)OCO4)CCN1C | 5630 nM (inactive)
CCCN(CCC)C(=O)C(CCC(=O)OCCCN1CCN(CCOC(=O)Cc2c(C)n(C(=O)c3ccc(Cl)cc3)c3ccc(OC)cc23)CC1)NC(=O)c1ccccc1 (centres undefined) | > 20000 nM (inactive)
Oc1c(Cl)cc(Cl)cc1Sc1cc(Cl)cc(Cl)c1O | > 20000 nM (inactive)
CC[C@]1(O)C[C@H]2CN(CCc3c([nH]c4ccccc34)[C@@](C(=O)OC)(c3cc4c(cc3OC)N(C=O)[C@H]3[C@@](O)(C(=O)OC)[C@H](OC(C)=O)[C@]5(CC)C=CCN6CC[C@]43[C@@H]65)C2)C1 | 4 nM
CCCCCCCCCCCC(=O)[O][Sn]([CH2]CCC)([CH2]CCC)[O]C(=O)CCCCCCCCCCC | > 20000 nM (inactive)

SMILES | IC50
NC(N)=NN=C(/C=C/c1ccc([N+](=O)[O-])o1)/C=C/c1ccc([N+](=O)[O-])o1 | > 20000 nM (inactive)
COc1cccc2c1C(=O)c1c(O)c3c(c(O)c1C2=O)C[C@@](O)(C(C)=O)C[C@@H]3O[C@H]1C[C@H](N)[C@H](O)[C@H](C)O1 | 369 nM
Cc1ccc2c(Br)cc(Br)c(O)c2n1 | > 20000 nM (inactive)
C[n+]1c2cc(N)ccc2cc2ccc(N)cc21 (tested in a mixture with another compound) | > 20000 nM (inactive)
CN1CC[C@H](c2c(O)cc(O)c3c(=O)cc(-c4ccccc4Cl)oc23)[C@H](O)C1 | 190 nM
O=C1C2CC=CCC2C(=O)N1SC(Cl)(Cl)Cl (centres undefined) | > 20000 nM (inactive)
Cc1cc(CC(C)CC(C)(C)C)n(O)c(=O)c1 (centres undefined) | 591 nM
C[C@@]12C(=O)OC(=O)[C@]1(C)C1CCC2O1 | > 20000 nM (inactive)
Cc1cc2c(C(C)C)c(O)c(O)c(C=O)c2c(O)c1-c1c(C)cc2c(C(C)C)c(O)c(O)c(C=O)c2c1O | 3490 nM
Cc1cc(C2CCCCC2)n(O)c(=O)c1 | > 20000 nM (inactive)
COc1cccc2c1C(=O)c1c(O)c3c(c(O)c1C2=O)C[C@@](O)(C(=O)CO)C[C@@H]3O[C@H]1C[C@H](N)[C@H](O[C@@H]2CCCCO2)[C@H](C)O1 | > 20000 nM (inactive)
O=C(CCl)c1ccc(Cl)cc1Cl | 373 nM
COC(=O)Nc1nc2ccc(C(=O)c3ccccc3)cc2[nH]1 | 1740 nM
O=C(Nc1ccc([N+](=O)[O-])cc1Cl)c1cc(Cl)ccc1O | 1570 nM
OCCN1CCN(CCCN2c3ccccc3Sc3ccc(Cl)cc32)CC1 | > 20000 nM (inactive)
Cc1ccc([N+](=O)[O-])[c]2c1[O][Hg]2 | 1510 nM
C#C[C@]1(O)CC[C@H]2[C@@H]3CCc4cc(OC5CCCC5)ccc4[C@H]3CC[C@@]21C | > 20000 nM (inactive)
Cc1nc(N)nc(N)c1-c1ccc(Cl)c(Cl)c1 | 50.4 nM
CCCCCCCCCCCCNCCNCCNCC(=O)O | > 20000 nM (inactive)
COC(=O)Nc1nc2ccc(Sc3ccccc3)cc2[nH]1 | 4840 nM
CC(C)C[C@H](NC(=O)[C@H](CCc1ccccc1)NC(=O)CN1CCOCC1)C(=O)N[C@@H](Cc1ccccc1)C(=O)N[C@@H](CC(C)C)C(=O)[C@@]1(C)CO1 | 29.2 nM

SMILES | IC50
O=C1c2c(O)ccc(O)c2C(=O)c2c(NCCNCCO)ccc(NCCNCCO)c21 | 30.3 nM
CC(C)(C)C(=O)OCOP(=O)(COCCn1cnc2c(N)ncnc21)OCOC(=O)C(C)(C)C | 704 nM
COc1cc(C=C2CCC/C(=C\c3ccc(O)c(OC)c3)C2=O)ccc1O | 5040 nM (inactive)
CSc1ccc2c(c1)C(N1CCN(C)CC1)Cc1ccccc1S2 (centres undefined) | > 20000 nM (inactive)
COc1cc([C@@H]2c3cc4c(cc3[C@@H](O[C@@H]3O[C@@H]5CO[C@@H](C)O[C@@H]5[C@H](O)[C@@H]3O)[C@H]3COC(=O)[C@H]23)OCO4)cc(OC)c1O | > 20000 nM (inactive)
CCN(CC)CCNc1ccc(CO)c2sc3ccccc3c(=O)c12 | > 20000 nM (inactive)
CCCCCCCCCCCCCCC[C@H](O)[C@@H](N)CO | > 20000 nM (inactive)
O=C1C(I)=CC(=C(c2cc(I)c(O)c(I)c2)c2ccccc2C(=O)O)C=C1I | > 20000 nM (inactive)
CC(=O)O[C@@]12CO[C@@H]1C[C@H](O)[C@@]1(C)C(=O)[C@H](O)C3=C(C)[C@@H](OC(=O)[C@H](O)[C@@H](NC(=O)OC(C)(C)C)c4ccccc4)C[C@@](O)([C@@H](OC(=O)c4ccccc4)[C@H]21)C3(C)C | 65.2 nM
O=C1OC2(c3cc(Br)c(O)cc3Oc3c2cc(Br)c(O)[c]3[Hg])c2ccccc21 (centres undefined) | 16900 nM (inactive)
CN(C)c1ccc(C(=C2C=CC(=[N+](C)C)C=C2)c2ccccc2)cc1 | > 20000 nM (inactive)
C=C(C)[C@H]1Cc2c(ccc3c2O[C@@H]2COc4cc(OC)c(OC)cc4[C@@H]2C3=O)O1 | 2990 nM
Cc1nc(Nc2ncc(C(=O)Nc3c(C)cccc3Cl)s2)cc(N2CCN(CCO)CC2)n1 | 104 nM
CN1C[C@H](CNC(=O)OCc2ccccc2)C[C@@H]2c3cccc4c3c(cn4C)C[C@H]21 | > 20000 nM (inactive)
CN(Cc1cnc2nc(N)nc(N)c2n1)c1ccc(C(=O)N[C@@H](CCC(=O)O)C(=O)O)cc1 | 26.5 nM
CCCCCCCCCCOCC(O)CN (centres undefined) | > 20000 nM (inactive)
Oc1c(I)cc(Cl)c2cccnc12 | > 20000 nM (inactive)
COC(=O)Nc1nc2ccc(C(=O)c3cccs3)cc2[nH]1 | 235 nM
CC[C@]1(O)C[C@@H]2CN(CCc3c([nH]c4ccccc34)[C@@](C(=O)OC)(c3cc4c(cc3OC)N(C)[C@H]3[C@@](O)(C(=O)OC)[C@H](OC(C)=O)[C@]5(CC)C=CCN6CC[C@]43[C@@H]65)C2)C1 | 3.5 nM and 5.8 nM
O=c1c(-c2ccccc2)c1-c1ccccc1 | > 20000 nM (inactive)
O[C@@H](c1cc(C(F)(F)F)nc2c(C(F)(F)F)cccc12)[C@H]1CCCCN1 | > 20000 nM (inactive)
